# Test results reported in patent US12421211B2, “Heterocyclic compounds” (Hoffmann-La Roche Inc., priority 2021, dated 2025).
# Counter-ions that a name gives are not always drawn.
# Test system: Acinetobacter baumannii ATCC17961
# Test: Antimicrobial susceptibility testing: 90% growth inhibitory concentration (IC90) determination
# Assay type: cell-based
# Conditions: Acinetobacter baumannii, ATCC17961, 16 h, 90% growth inhibitory concentration, Acinetobacter baumannii ATCC17961, Iso-Sensitest broth, OD 600 nm over 16 h; read-out: ATCC 17961 IC90
# Summary of the method: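 A. baumannii ATCC17961 at ~5×10^5 CFU/ml in Iso-Sensitest broth exposed to 10-point twofold dilutions (e.g. 50–0.097 μM final), 35±2° C. OD600 read every 20 minutes over 16h; IC50 and IC90 derived from inhibition during logarithmic growth.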
row,SMILES,IC90 [nM]
1,"COCCn1ncc(-c2ccc(-c3cnc(C(=O)Nc4ccc(C(=O)N5CCN(C(=O)[C@H]6CC[N@+](CC(=O)O)(CC7CNC7)CC6)CC5)c(Cl)c4)n3C)c(C)c2F)c1C [Example O4, cis 2-[1-(azetidin-3-ylmethyl)-4-[4-[2-chloro-4-[[5-[3-fluoro-4-[1-(2-methoxyethyl)-5-methyl-pyrazol-4-yl]-2-methyl-phenyl]-1-methyl-imidazole-2-carbonyl]amino]benzoyl]piperazine-1-carbonyl]piperidin-1-ium-1-yl]acetic acid formate]",118
2,"Cc1nn(CCOC(F)F)cc1-c1ccc(-c2cnc(C(=O)Nc3ccc(C(=O)N4CCN(C(=O)[C@@H]5C[C@@H](O)C[N+]5(C)C)CC4)c(Cl)c3)n2C)c(F)c1F [Example F9, N-[3-chloro-4-[4-[(2S,4R)-4-hydroxy-1,1-dimethyl-pyrrolidin-1-ium-2-carbonyl]piperazine-1-carbonyl]phenyl]-5-[4-[1-[2-(difluoro-methoxy)ethyl]-3-methyl-pyrazol-4-yl]-2,3-difluoro-phenyl]-1-methyl-imidazole-2-carboxamide; formate]",160
3,"Cn1c(-c2ccc(-c3cn(CCOC(F)F)nc3C(F)(F)F)c(F)c2F)cnc1C(=O)Nc1ccc(C(=O)N2CCN(C(=O)C3CCNCC3)CC2)c(Cl)c1 [Example E6, N-[3-chloro-4-[4-(piperidine-4-carbonyl)piperazine-1-carbonyl]phenyl]-5-[4-[1-[2-(difluoromethoxy)ethyl]-3-(trifluoromethyl)pyrazol-4-yl]-2,3-difluoro-phenyl]-1-methyl-imidazole-2-carboxamide; formic acid]",950
4,"Cc1nn(CC(=O)NC2CCC(F)(F)CC2)cc1-c1ccc(-c2cnc(C(=O)Nc3ccc(C(=O)N4CCN(C(=O)C5CC[N+](C)(C)CC5)CC4)c(Cl)c3)n2C)c(F)c1F [Example G26, N-[3-chloro-4-[4-(1,1-dimethylpiperidin-1-ium-4-carbonyl)piperazine-1-carbonyl]phenyl]-5-[4-[1-[2-[(4,4-difluorocyclohexyl)amino]-2-oxo-ethyl]-3-methyl-pyrazol-4-yl]-2,3-difluoro-phenyl]-1-methyl-imidazole-2-carboxamide; formate]",100
5,"COCCn1ncc(-c2ccc(-c3cnc(C(=O)Nc4ccc(C(=O)N5CCC(CN6CC[N+](C)(C)CC6=O)CC5)c(Cl)c4)n3C)c(F)c2F)c1C [Example D14, N-[3-chloro-4-[4-[(4,4-dimethyl-2-oxo-piperazin-4-ium-1-yl)methyl]piperidine-1-carbonyl]phenyl]-5-[2,3-difluoro-4-[1-(2-methoxyethyl)-5-methyl-pyrazol-4-yl]phenyl]-1-methyl-imidazole-2-carboxamide; 2,2,2-trifluoroacetate]",110

# Same assay, conditions: Acinetobacter baumannii, ATCC17961, 16 h, read-out: ATCC 17961 IC90
row,SMILES,IC90 [nM]
1,"Cc1c(-c2cnc(C(=O)Nc3ccc(C(=O)N4CCN(C(=O)C5CC[N+](CC(=O)O)(CC6CNC6)CC5)CC4)c(Cl)c3)n2C)ccc(-c2cnn(CCOC(F)F)c2C)c1F (stereo not shown) [Example N2, 2-[1-(azetidin-3-ylmethyl)-4-[4-[2-chloro-4-[[5-[4-[1-[2-(difluoromethoxy)ethyl]-5-methyl-pyrazol-4-yl]-3-fluoro-2-methyl-phenyl]-1-methyl-imidazole-2-carbonyl]amino]benzoyl]piperazine-1-carbonyl]piperidin-1-ium-1-yl]acetic acid; formate]",183
2,"COCCn1ncc(-c2ccc(-c3cnc(C(=O)Nc4ccc(C(=O)N5CCC(N(C)C(=O)C6CC[N+](CC(=O)O)(CC7CNC7)CC6)CC5)c(Cl)c4)n3C)c(F)c2F)c1C (stereo not shown) [Example O1, 2-[1-(azetidin-3-ylmethyl)-4-[[1-[2-chloro-4-[[5-[2,3-difluoro-4-[1-(2-methoxyethyl)-5-methyl-pyrazol-4-yl]phenyl]-1-methyl-imidazole-2-carbonyl]amino]benzoyl]-4-piperidyl]-methyl-carbamoyl]piperidin-1-ium-1-yl]acetic acid formate]",354
